The test system of data set [1] is colon polyp or adenocarcinoma. In words: Example 1: course of oral PD123319 treatment of colon polyps and colorectal adenocarcinoma. Format: in vivo. The protocol: PD123319, an angiotensin II receptor (AT2 receptor) antagonist, is available in 1-mg, 10-mg, 50-mg, 100-mg, 250 mg, 500 mg, and 1000 mg tablets for oral administration and in 1-mg, 10-mg, 50-mg, 100-mg, 500 mg, 1000 mg, 5000 mg, and 10,000 mg suppositories for rectal administration.
PD123319 is indicated for the treatment of colorectal cancer including non-malignant polyps of the colon and colorectal adenocarcinoma. There are no known contradictions to treatment with PD123319.
A 12-20 week course of therapy yields a remission of adenocarcinoma (e.g., tumor number and/or volume) in greater than 79% of individuals that are diagnosed with at least one adenocarcinoma. Total dose per day is determined by severity (number and/or cancer stage) as assessed by a treating veterinarian or physician. A preferred course of treatment for a patient with colorectal polyps is 10-30 mg (medication) per kg (body weight) per day. A preferred course of treatment for a patient with colorectal adenocarcinoma is 20-30 mg/kg/day. In certain cases, a course of treatment for a patient with colorectal adenocarcinoma is 100 mg/kg/day administered orally or as a suppository. A preferred maintenance or chemoinhibitory course of therapy is typically 1.0 to 10 mg/kg. […]

Data set [2] concerns the target T1, AT2 receptor (Mus musculus, UniProt P35374).
T1 sequence (P35374 1-363): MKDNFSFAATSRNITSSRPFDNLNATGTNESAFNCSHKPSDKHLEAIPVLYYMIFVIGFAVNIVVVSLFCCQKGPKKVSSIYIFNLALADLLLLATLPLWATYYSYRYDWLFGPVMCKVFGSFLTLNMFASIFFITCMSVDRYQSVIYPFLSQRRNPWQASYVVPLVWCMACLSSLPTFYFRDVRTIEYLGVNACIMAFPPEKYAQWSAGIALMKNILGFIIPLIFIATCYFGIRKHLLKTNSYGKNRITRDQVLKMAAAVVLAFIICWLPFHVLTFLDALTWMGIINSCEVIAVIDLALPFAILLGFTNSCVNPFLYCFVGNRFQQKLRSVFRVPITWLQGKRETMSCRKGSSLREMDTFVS
The conditions noted are these: read-out: IC50 for the inhibition of ligand-receptor binding; cited from earlier work.

For data set [3] the following is noted: chronic administration, 30 mg/kg/day, rats; cited from earlier work.
The test system of data set [4] is hepatic CYP2E1. In words: hepatic CYP2E1 protein expression after AOM, Western blot of liver microsomes.
Description: AT2 receptor antagonist PD123,319 treatment (15 mg/kg/12 h, gavage administration, and 50 μg/ml in drinking tap water) was initiated 3 h prior to the AOM treatment. The liver was dissected out and the microsomal fractions were subjected to SDS-polyacrylamide gel electrophoresis followed by immunoblotting with anti-human CYP2E1 antibodies.
AT2 receptor blocker PD123319 treatment (15 mg/kg/12 h, gavage administration and 50 μg/ml in drinking tap water) was initiated 3 h prior to the AOM treatment. The control group for the AOM treatment received saline. Mice for the short term study were sacrificed 6 h or 24 h after AOM treatment. […] The remaining tissues were frozen in liquid nitrogen and stored at −80° C.
Tissues were individually homogenized by a Polytron homogenizer in three volumes of 1 mM Tris-HCl buffer, pH 7.5, containing 1 mM EDTA, 0.25 M sucrose and protease inhibitor cocktail. The supernatant from 10,000× g centrifugation of the homogenate for 15 min was further centrifuged at 100,000× g for 1 h. The microsomal membranes were suspended in 100 mM NaH2PO4, pH 7.4, 10 mM MgCl2, 20% glycerol, and protease inhibitor cocktail, and 25 μg of the membrane protein was subjected to Western blot analysis.
The liver microsomal membranes were lysed with 0.5 ml lysis buffer (10 mM Tris-HCl (pH 7.4), 1% SDS). After sonication, the lysate was boiled for 5 min. […]
In data set [5] the test system is O^6-methylguanine adduct in colon DNA. In words: colonic O^6-methylguanine adduct level after AOM, immuno-slot-blot.
Description: AT2 receptor blocker PD123319 treatment (15 mg/kg/12 h, gavage administration and 50 μg/ml in drinking tap water) was initiated 3 h prior to the AOM treatment. The control group for the AOM treatment received saline. Mice for the short term study were sacrificed 6 h or 24 h after AOM treatment.
Immediately after the mice were sacrificed by cervical dislocation, the colon was excised, washed with phosphate-buffered saline, divided into proximal and distal segments, and snap-frozen in liquid N2. Small portions of each lobe of the liver were also removed and frozen in the same manner. Tissue was digested in a lysis buffer consisting of 10 mM Tris-HCl, pH 7.4, 1 mM EDTA, 1% SDS, 5× SSC and 0.2 mg/ml Proteinase K. DNA was extracted by phenol/chloroform/isoamyl alcohol and precipitated with ice-cold ethanol by standard protocols. Samples were then treated with RNase A (50 mg/ml) and DNA was fragmented by sonication. The concentration of DNA was determined by the absorbance at 260 nm.
DNA samples were heat-denatured for 10 min, immediately chilled on ice, and mixed with an equal volume of 2 M ammonium acetate. […] Relative blot intensities were measured by densitometry using a Fluor-S image analyzer (Bio-Rad Laboratories, Inc., Hercules, Calif., United States of America).
The subject of data set [6] is colon tumors. In words: AOM-induced colon tumors in F2 mice crossbred with SWR/J (Table 4). Format: in vivo, mouse. The conditions noted are these: AOM 10 mg/kg I.P. 4 consecutive weeks, 26 weeks. As for the experimental part:
. […] The colons and livers were macroscopically examined. […] Tumor size was measured with a caliper.
In Example 2, clear-cut results were obtained that the AT2 receptor is involved in AOM-induced colon cancer. A concern was that this might be true only in the mouse strain crossbred from 129/OIa and C57BL/6J mouse strains. In order to overcome this problem, the AT2-KO mice in this crossbred strain were back-crossed with SWR/J mice, whose susceptibility to AOM is established. During the course of back-crossing, similar experiments were performed as described in Example 1, using F2 male wild and AT2-KO mice.

Data set [7] concerns cytochrome P450 proteins (CYP1A1, 1A2 and 2E1) in liver. In words: inducibility of CYP1A1, 1A2 and 2E1 in the liver after AOM. The class given is in vivo, mouse. Conditions: AOM 15 mg/kg bolus I.P. From the text:
Anti-rabbit anti-human CYP1A1/1A2 and CYP2E1 antisera were obtained from Dr. F. P. Guengerich, Department of Biochemistry, Vanderbilt University. See Soucek et al., (1995) Biochem. 34:16013-16021; Shimada et al., (1992) Mol. Pharmacol. 41:856-864. The cross-reactivities of these antibodies to mouse CYP1A1/1A2 and 2E1 have been characterized.
The inducibilities of CYP1A1, 1A2 and 2E1 in the liver were exaimed.

Data set [8] has as its system colon tumors. The experiment in a line: AOM-induced colon tumors in mouse strain crossbred from 129/Ola and C57BL/6J (Table 3). Format: in vivo. Conditions: 23 weeks; for Body Weight / Colon Tumors Multiplicity = average number of tumors/mouse / Colon Tumors Prevalence (%) = percent of tumor-bearing mice / Colon Tumors Total Number: AOM 10 mg/kg I.P. 4 consecutive weeks. As for the experimental part: The colons and livers were macroscopically examined. […] Tumor size was measured with a caliper. […] In addition, the size of the tumors in wild type mice was large (over 55% of tumors 22 mm^3). The tumors were predominantly observed in the lower half of the descending colon.

The conditions of data set [9]: daily administration of the pressor dose (10-50 mg/kg/day), man and animals; cited from earlier work.
Data set [10] addresses T2, mouse angiotensin II type 2 receptor (mouse, UniProt P35374 1-363).
T2 construct: Native receptor in mouse tissue (liver and colon plasma membranes, liver nuclei), not a recombinant construct; also called AT2 receptor; AT2
T2 sequence: T1 sequence (P35374 1-363)
The experiment in a line: radioligand-receptor binding on mouse liver and colon plasma membranes.

Setting [11] is: AOM 10 mg/kg bolus I.P., both wild type and AT2-null mice.

For orientation: IC50 means the point on the concentration scale where inhibition reaches its midpoint.

Marks after values point to notes of the source that are not given here.

Turning to `Cc1cc(Cn2cnc3c2C[C@@H](C(=O)O)N(C(=O)C(c2ccccc2)c2ccccc2)C3)ccc1N(C)C` [PD123319], the “colon polyp or adenocarcinoma number as determined by endoscopy” value in data set [1] (4-8 week course, oral administration) is on record as “significant reduction”. Besides, the “remission of adenocarcinoma (tumor number and/or volume)” value in [1] (12-20 week course of therapy, individuals diagnosed with at least one adenocarcinoma) is given as “greater than 79 % of individuals”. Moreover, the IC50 in [2] is 10 nM. In data set [3], the adverse effects entry is recorded as “does not show any adverse effects”. In data set [4] (wild type mice, pretreatment 15 mg/kg/12 h by gavage and 0.35 mg/kg/h in drinking water, AOM 10 mg/kg I.P., 24 h), the “effect on AOM-induced CYP2E1 downregulation in the liver” value was “significantly attenuated”. Also, the “effect on AOM-induced increase in the colonic O^6-methylguanine level” value in data set [5] (wild type mice, 15 mg/kg/12h by gavage and 0.35 mg/kg/h in drinking water, 24 h after AOM 10 mg/kg) is “markedly attenuated”.

For `CN=[N+](C)[O-]` [AOM, azoxymethane], in data set [6] (AT2-KO F2 male mice), the “Colon Tumors Multiplicity” value is reported as 6.3, the “Colon Tumors Prevalence (%)” value came out at 100.0%, the “Colon Tumors Total Number” value is 50 and the “Colon Tumors Volume (mm^3) = total tumor volume/number of tumors” value came out at 19.8 ± 3.0 mm^3. In data set [6] (Control (wild) F2 male mice), the “Colon Tumors Multiplicity” value is 12.0, the “Colon Tumors Prevalence (%)” value was found to be 100.0%, the “Colon Tumors Total Number” value is given as 96 and the “Colon Tumors Volume (mm^3) = total tumor volume/number of tumors” value is 36.8 ± 3.2* mm^3. Besides, the “effect on hepatic cytochrome P450 levels” value in data set [7] (AT2-KO mice, 24 h after injection) is “decreased substantially”. In addition, in [7] (wild type mouse liver), the “effect on levels of cytochrome P450 proteins in liver” value is reported as “significantly increased”. Besides, in data set [8] (AT2-KO mice), the “Body Weight” value came to 36.5 ± 1.6 g, the “Colon Tumors Multiplicity = average number of tumors/mouse” value worked out at 0.11, the “Colon Tumors Prevalence (%) = percent of tumor-bearing mice” value was 11.1% and the “Colon Tumors Total Number” value was determined as 1. In addition, in [8] (Control (wild type) mice), the “Body Weight” value is 36.5 ± 4.3 g, the “Colon Tumors Multiplicity = average number of tumors/mouse” value was 7.38, the “Colon Tumors Prevalence (%) = percent of tumor-bearing mice” value is given as 100% and the “Colon Tumors Total Number” value is 59. Also, the “share of tumors 22 mm^3 (large tumors)” value in [8] (wild type mice, AOM 10 mg/kg I.P. 4 weekly) was “over 55%”. Besides, in [4] (setting [11]), the “effect on CYP2E1 protein expression in liver” value was “significantly downregulated”. Also, the “effect on colonic O^6-methylguanine levels” value in data set [5] (setting [11]) is recorded as “time-dependently increased”.

As for `CCCCc1nc(Cl)c(CO)n1Cc1ccc(-c2ccccc2-c2nn[nH]n2)cc1` [losartan], the side effects result in [9] is recorded as “no serious side effects”.

As to XRVYIHPI (sarcosine at position 1 in place of Asp; 125I label, X stands for sarcosine) [[^125I]Sar^1·Ile^8·Ang II], the binding result in [10] is on record as “binds”.

The record behind these values is patent US20030083339A1, “Compositions and methods for treating colorectal polyps and cancer” (priority 2001, published 2003).
